TGI and GI50 data for 21 compounds are collected here from PubChem BioAssay (NCI).

Some test systems named below: HCC-2998 colon; SK-MEL-5 melanoma; SK-OV-3 ovarian; TK-10 renal; UACC-257 melanoma; UO-31 renal; NCI-H522 lung; MDA-MB-435; SR leukemia.
Holding throughout (test): NCI anticancer screen, dose series, 48 h

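Test compounds were applied to cells in 96-well plates for 48 hours at 5 doses. Abbreviation: GI50, concentration required for 50% inhibition of growth. TGI: concentration producing complete growth inhibition.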

As to `CC1CCP(=O)(c2ccccc2)CC1` (stereo unspecified), the TGI in the assay with HCC-2998 colon, with SK-MEL-5 melanoma, with SK-OV-3 ovarian, in the assay with TK-10 renal, with UACC-257 melanoma and in the assay on UO-31 renal was above 100 µM each time.
As for `CC1(C)CC(=O)C(=[N+]=[N-])C(=O)C1`, the TGI in the assay with HCC-2998 colon, with NCI-H522 lung, in the assay with SK-OV-3 ovarian, in the assay with TK-10 renal and in the assay on UACC-257 melanoma was above 100 µM throughout.
In the case of `COc1cc(Cl)c2c3c(c(C(=O)c4ccccc4)oc13)CCC2`, the TGI with HCC-2998 colon, in the assay on SK-MEL-5 melanoma, with SK-OV-3 ovarian, with TK-10 renal and with UACC-257 melanoma was above 100 µM in each case.
In the case of `Cc1cccc2c1O/C(=C\c1ccc([N+](=O)[O-])o1)C2=O`, the GI50 was 1.34 µM in the assay on HCC-2998 colon; 1.02 µM in the assay with MDA-MB-435; 0.222 µM in the assay on NCI-H522 lung; 1.14 µM with SK-MEL-5 melanoma; 2.57 µM in the assay on SK-OV-3 ovarian; 0.12 µM with SR leukemia. The GI50 is 2.3 µM with TK-10 renal, 1.42 µM with UACC-257 melanoma and 1.09 µM in the assay on UO-31 renal. Moreover, the TGI in the assay with HCC-2998 colon came out at 3.91 µM; in the assay on MDA-MB-435, 2.46 µM; with NCI-H522 lung it was 0.668 µM; in the assay on SK-MEL-5 melanoma it was 2.42 µM; in the assay on SK-OV-3 ovarian, 8.28 µM; in the assay with SR leukemia, 0.727 µM. Besides, the TGI in the assay with TK-10 renal turned out to be 5.61 µM; in the assay with UACC-257 melanoma, 2.91 µM; in the assay on UO-31 renal, 2.49 µM.
Regarding `Cc1ccc(NC(=O)C2C(=O)N(c3ccc(C)c(C)c3)C(=O)/C2=N\NC(N)=S)cc1C` (stereo unspecified), the TGI with NCI-H522 lung, in the assay on SK-OV-3 ovarian, in the assay on SR leukemia, with TK-10 renal, in the assay on UACC-257 melanoma and in the assay with UO-31 renal was above 100 µM throughout.
On to `Cn1c2ccccc2c(=O)c2c([N+](=O)[O-])ccc(NCCN)c21`, for which the TGI with HCC-2998 colon is 21.8 µM; with NCI-H522 lung, 20.5 µM; in the assay with SK-MEL-5 melanoma, 27.2 µM; in the assay on SK-OV-3 ovarian it was 29.4 µM; in the assay with SR leukemia, above 100 µM; in the assay with TK-10 renal, 28.5 µM. Further, the figures for the TGI in the assay on UACC-257 melanoma and with UO-31 renal were 26.9 µM and 18.8 µM, respectively.
As to `BrC1=CC=C2NCCCCCCN=C3C=CC(Br)=CC=C3NCCCCCCN=C2C=C1`, the TGI in the assay on HCC-2998 colon, in the assay with NCI-H522 lung, in the assay on SK-MEL-5 melanoma, with SK-OV-3 ovarian, with TK-10 renal and in the assay with UACC-257 melanoma was above 25.5 µM in each case. The same compound gave a TGI in the assay on UO-31 renal above 25.5 µM.
For the compound `COC1C(O)C(C)OC(OC2CC3CCC4C(CCC5(C)C(C6=CC(=O)OC6)CCC45O)C3(O)C(OC(C)=O)C2)C1O` (stereo unspecified), the TGI in the assay on HCC-2998 colon amounted to 13 µM; in the assay on MDA-MB-435, 10.5 µM; in the assay with NCI-H522 lung it was 3.21 µM; with SK-MEL-5 melanoma it was 2.03 µM; in the assay on SK-OV-3 ovarian, 6.82 µM; in the assay with TK-10 renal it was 6.8 µM. In addition, the TGI in the assay with UACC-257 melanoma came out at 16.5 µM; in the assay on UO-31 renal, 4.51 µM.
Take `CCCCCC(O)(CCCCC)CCCCCCCCC1=C(O)c2[nH]c(=O)ccc2C(=O)C1=O`: the TGI in the assay on HCC-2998 colon came out at 27.8 µM; with NCI-H522 lung it was 20.8 µM; in the assay with SK-MEL-5 melanoma, 12.9 µM; in the assay with SK-OV-3 ovarian it was 29.6 µM; in the assay with SR leukemia, 96.7 µM; in the assay with UACC-257 melanoma, 14.3 µM. Moreover, the TGI in the assay with UO-31 renal is 26.1 µM.
Regarding `COC(=O)/C(=C/c1ccc(OC)cc1)NC(=O)c1ccccc1`, the TGI in the assay with HCC-2998 colon, in the assay with SK-MEL-5 melanoma, with SK-OV-3 ovarian, in the assay on SR leukemia, in the assay with TK-10 renal and in the assay on UACC-257 melanoma was above 100 µM each time. The TGI with UO-31 renal is above 100 µM.
Regarding `CCCCN(CCCC)C(=O)C(=O)C(C)C(=O)CC` (stereo unspecified), the TGI in the assay on HCC-2998 colon, in the assay with NCI-H522 lung, in the assay with SK-OV-3 ovarian, in the assay with TK-10 renal, in the assay on UACC-257 melanoma and in the assay with UO-31 renal was above 100 µM throughout.
`O=[N+]([O-])[O-].O=[N+]([O-])[O-].[Au].[Au].c1ccc([P-]c2ccccc2)cc1.c1ccc([P-]c2ccccc2)cc1`: the GI50 with HCC-2998 colon was 71.8 µM; with NCI-H522 lung, 3.64 µM; in the assay on SK-MEL-5 melanoma it was 34.1 µM; in the assay on SK-OV-3 ovarian it was above 100 µM; in the assay with TK-10 renal, 23.3 µM; in the assay on UACC-257 melanoma, 26.3 µM. Besides, the GI50 in the assay on UO-31 renal was 25.9 µM. Further, the TGI in the assay with HCC-2998 colon was above 100 µM; in the assay on NCI-H522 lung it was 46.3 µM; in the assay with SK-MEL-5 melanoma, 88.8 µM; in the assay on SK-OV-3 ovarian, above 100 µM; in the assay on TK-10 renal, 53.6 µM; in the assay on UACC-257 melanoma, 62.7 µM. Also, the TGI in the assay with UO-31 renal came to 47.5 µM.
For `CN1CCN(c2ccc(NC3=C(Cl)C(=O)c4ncccc4C3=O)cc2C#N)CC1`, the GI50 is 2.34 µM in the assay on HCC-2998 colon; 1.91 µM with MDA-MB-435; 1.83 µM with SK-MEL-5 melanoma; 13.8 µM with SK-OV-3 ovarian; 2.09 µM in the assay with TK-10 renal; 1.73 µM in the assay with UACC-257 melanoma. In addition, the GI50 in the assay with UO-31 renal is 1.34 µM. The TGI in the assay on HCC-2998 colon is 7.03 µM; in the assay on MDA-MB-435 it was 3.67 µM; with SK-MEL-5 melanoma it was 3.38 µM; in the assay with SK-OV-3 ovarian it was 27.5 µM; in the assay on TK-10 renal, 4.24 µM; in the assay with UACC-257 melanoma, 3.29 µM. Also, the TGI in the assay on UO-31 renal was 2.61 µM.
As to `CCCCCCNc1nc(N2CCOCC2)c2[nH]c(NCCCCCC)nc2n1`, the GI50 in the assay on HCC-2998 colon was 1.7 µM; with NCI-H522 lung, 1.58 µM; with SK-MEL-5 melanoma, 1.42 µM; in the assay on SK-OV-3 ovarian, 1.73 µM; in the assay on TK-10 renal, 1.87 µM; with UACC-257 melanoma it was 1.62 µM. The GI50 in the assay with UO-31 renal is 1.36 µM. Moreover, the TGI in the assay on HCC-2998 colon was 3.07 µM; with NCI-H522 lung it was 3.37 µM; in the assay on SK-MEL-5 melanoma, 2.72 µM; in the assay on SK-OV-3 ovarian it was 3.14 µM; with TK-10 renal, 3.45 µM; in the assay on UACC-257 melanoma it was 3.16 µM. This compound came in with a TGI in the assay with UO-31 renal of 2.84 µM.
As for `c1cc(-c2cn[nH]c2)cc(-c2cn[nH]c2)c1`, the TGI in the assay on HCC-2998 colon is above 100 µM; in the assay with NCI-H522 lung, above 100 µM; with SK-MEL-5 melanoma, above 100 µM; in the assay with SK-OV-3 ovarian, 37.5 µM; in the assay with SR leukemia it was above 100 µM; with TK-10 renal, above 100 µM. Further, the TGI with UACC-257 melanoma was above 100 µM; with UO-31 renal, 58.4 µM.
For the compound `CC(=O)[C-](C(C)=O)c1ccccc1.CC(=O)[C-](C(C)=O)c1ccccc1.CC[O-].CC[O-].[Ti+4]`, the GI50 in the assay with HCC-2998 colon, in the assay with NCI-H522 lung, with SK-MEL-5 melanoma, in the assay with SK-OV-3 ovarian, in the assay with TK-10 renal and with UACC-257 melanoma was above 100 µM each time. The GI50 in the assay with UO-31 renal was above 100 µM. Also, the TGI in the assay on HCC-2998 colon, in the assay on NCI-H522 lung, in the assay on SK-MEL-5 melanoma, with SK-OV-3 ovarian, with TK-10 renal and with UACC-257 melanoma was above 100 µM each time. The compound also showed a TGI in the assay with UO-31 renal above 100 µM.
For `COc1ccc(C(=O)C(C(=O)C(=O)Nc2nccs2)c2ccc(OC)cc2)cc1` (stereo unspecified), the TGI in the assay with NCI-H522 lung, in the assay with SK-MEL-5 melanoma, in the assay on SK-OV-3 ovarian, in the assay on TK-10 renal, in the assay on UACC-257 melanoma and in the assay with UO-31 renal was above 100 µM in each case.
In the case of `c1ccc2cc(Cn3c[n+](Cc4ccc5ccccc5c4)c4ccccc43)ccc2c1`, the GI50 in the assay with MDA-MB-435 was 1.37 µM; in the assay with SK-MEL-5 melanoma it was 0.556 µM; with SK-OV-3 ovarian, 1.67 µM; in the assay with UACC-257 melanoma it was 1.39 µM; in the assay on UO-31 renal, 1.74 µM. For the same compound, the TGI amounted to 2.74 µM in the assay on MDA-MB-435; 1.86 µM in the assay on SK-MEL-5 melanoma; 3.4 µM with SK-OV-3 ovarian; 2.97 µM in the assay on UACC-257 melanoma; 4.62 µM with UO-31 renal.
Consider `C#C[C@H](CCCC)OC(=O)N[C@H](C)c1ccccc1`, for which the TGI was 86.8 µM with NCI-H522 lung; 37 µM in the assay on SK-MEL-5 melanoma; above 100 µM in the assay on SK-OV-3 ovarian; 99.4 µM with SR leukemia; above 100 µM in the assay with TK-10 renal; 71 µM in the assay with UACC-257 melanoma. This compound had a TGI with UO-31 renal of 75.8 µM.
With `O=C(O)/C(=C\c1ccccc1Cl)S(=O)(=O)c1ccccc1`, the TGI with HCC-2998 colon, in the assay with NCI-H522 lung, with SK-MEL-5 melanoma, with SK-OV-3 ovarian, in the assay with TK-10 renal and in the assay with UACC-257 melanoma was above 100 µM throughout. Moreover, in the assay with UO-31 renal, the TGI was above 100 µM.
`N[C@@H]1CCCC[C@@H]1N.O=C([O-])CN(CP(=O)([O-])[O-])CP(=O)([O-])[O-].[Pt+2]`: the GI50 in the assay on HCC-2998 colon, with NCI-H522 lung, in the assay on SK-MEL-5 melanoma, in the assay with SK-OV-3 ovarian, in the assay on TK-10 renal and in the assay with UACC-257 melanoma was above 100 µM in each case. Besides, the GI50 with UO-31 renal was above 100 µM. In addition, the TGI in the assay on HCC-2998 colon, in the assay with NCI-H522 lung, with SK-MEL-5 melanoma, in the assay with SK-OV-3 ovarian, in the assay with TK-10 renal and in the assay on UACC-257 melanoma was above 100 µM in each case. Also, the TGI in the assay on UO-31 renal was above 100 µM.
